Data set [1] is described as follows: Metabolic stability in CD-1 mice liver microsomes. Type of data set: in vitro ADME. The protocol:
Objective: The metabolic stability of the test compound in CD-1 mice and human liver microsomes was determined. […]
Background: Liver microsomes are vesicles of endoplasmic reticulum, rich in cytochrome P450 enzymes.

For data set [2], the system named is hepatitis B virus. Put plainly: In vivo efficacy study, HDJ/HBV mouse model (HBV DNA in plasma and liver by qPCR). More on the design: species or system mice. How it is done:
Objective: The efficacy of the compound against hepatitis B virus in mice was determined through the HDJ/HBV mouse model.
Preparation of compound: the solvent was 10% polyethylene glycol-15 hydroxystearate; a certain amount of the tested compound of formula (I) was dissolved in an aqueous solution containing 10% polyethylene glycol-15 hydroxystearate, and the mixture was vortexed and sonicated to prepare a homogeneous suspension, and the suspension was stored at 4° C. for later use.
High pressure injection of the HBV plasmid DNA solution via the tail vein of mice: the day of plasmid injection was day 0, the day after injection was day 1, and so on. On day 0, all animals were injected by tail vein with a saline solution containing 10 μg of plasmid DNA at a volume of […] of body weight, and the injection was completed within 5 seconds.
Administration: all mice were administered intragastrically twice a day (8/16 h interval) on day 1-6 and once on day 7. All mice were euthanized in the afternoon on day 7. The body weight of the mice, which was monitored every day, remained stable throughout the experiment.
Sample collection: blood was collected from the submandibular vein 4 h after the first administration in the morning on days 1, 3, and 5. All blood samples were collected in K2-EDTA anticoagulation tubes, and centrifuged for 10 min at 4° C., 7000 g to prepare about 40 μL of plasma. All mice were euthanized by CO2 four hours after administration in the morning on day 7. Blood was collected from the heart, and the plasma preparation method was the same as above. Two liver tissues were collected with 70-100 mg each, and quick-frozen by liquid nitrogen. After all samples were collected, they were stored in a refrigerator (−80° C.) for HBV DNA content detection.
Sample analysis: all plasma samples and liver samples were detected for HBV DNA by qPCR.

The mark [3] stands for this setting: 10 mg/kg intragastrically twice a day.
The mark [4] stands for this setting: 30 mg/kg intragastrically twice a day.

Bounds are passed on as bounds.

With `CC1(NC(=O)C(=O)c2c(Cl)c(C(=O)Nc3cc(F)c(F)c(F)c3)c3n2CCC3)CCC(CC(=O)O)CC1` (stereo not shown) [Compound of formula (I)], in data set [1] (CD-1, mouse, microsomes), the microsomal CLint (usually the capacity of the preparation to metabolise the compound, expressed as a volume cleared per time) at 1 μM is less than 9.6 µL/min/mg. Also, the CLint scaled (in general, the rate of metabolic loss divided by the concentration) at 1 μM in data set [1] (mouse, CD-1 mice liver microsomes) was less than 38 mL/min/kg. The half-life (as a rule, the time in which the quantity being followed falls by half) at 1 μM in data set [1] (mouse, CD-1 mice liver microsomes, 1 μM compound, 0.5 mg/mL) was more than 2.42 h. The entries for the “HBV-DNA reduction, Liver (day 7)” value in data set [2] (setting [3]) and in data set [2] (setting [4]) were 0.94 Δ Log10 copies/100 ng and 2.36 Δ Log10 copies/100 ng, respectively. For the same molecule, the “HBV-DNA reduction, Plasma (day 5)” value is recorded as 2.0 Δ Log10 copies/μL in data set [2] (setting [3]) and 3.57 Δ Log10 copies/μL in data set [2] (setting [4]).
